Where two headings read alike, the source gives them in different places. Bridge positions count the residues as written; N and C are the ends. Peptide text beside a SMILES is read from it.
Columns and labels:
[1] = molecular target: SARS−CoV−2 Spike RBD (Severe acute respiratory syndrome coronavirus 2, UniProt P0DTC2); experiment: biochemical; format: binding
[2] = molecular target: SARS-CoV-2 Spike receptor-binding domain (residues N334-P527) (SARS-CoV-2 (isolate Wuhan-Hu-1)) (UniProt P0DTC2); experiment: MST

| Compound | Kd ([1]; KD, SD) | further results |
| --- | --- | --- |
| CC[C@H](C)[C@@H]1NC(=O)[C@H](CO)NC(=O)[C@H](CC(C)C)NC(=O)[C@@H]2CSSC[C@@H](C(=O)NCC(=O)N[C@@H](CCCCN)C(=O)N[C@@H](CCC(N)=O)C(=O)O)NC(=O)[C@H]([C@@H](C)O)NC(=O)[C@@H]3CSSC[C@H](NC(=O)[C@H](CCC(=O)O)NC(=O)[C@H](CC(N)=O)NC(=O)[C@H](CCCNC(=N)N)NC(=O)[C@H](CC(N)=O)NC(=O)[C@H](Cc4ccccc4)NC(=O)[C@@H]4CCCN4C(=O)[C@@H](NC(=O)CNC(=O)[C@H](Cc4ccccc4)NC(=O)CN)CSSC[C@H](NC(=O)[C@H](Cc4ccccc4)NC(=O)CNC(=O)[C@H](Cc4ccccc4)NC(=O)[C@H](CCCCN)NC(=O)[C@H](CCCNC(=N)N)NC(=O)CNC1=O)C(=O)N[C@@H](C)C(=O)NCC(=O)N1CCC[C@H]1C(=O)N[C@@H](CC(C)C)C(=O)N[C@@H](CCCNC(=N)N)C(=O)N[C@@H](C)C(=O)N[C@@H]([C@@H](C)O)C(=O)N3)C(=O)N[C@@H](Cc1c[nH]cn1)C(=O)N[C@@H](C)C(=O)N[C@@H](Cc1c[nH]cn1)C(=O)N2 [E8R] (H-GFGCPFNRNECHAHCLSIGRKFGFCAGPLRATCTCGKQ-OH; disulfide 4-25, 11-33, 15-35) | 720 ± 220 nM |  |
| CC[C@H](C)[C@@H]1NC(=O)[C@H](CO)NC(=O)[C@H](CC(C)C)NC(=O)[C@@H]2CSSC[C@@H](C(=O)NCC(=O)N[C@@H](CCCCN)C(=O)N[C@@H](CCC(N)=O)C(=O)O)NC(=O)[C@H]([C@@H](C)O)NC(=O)[C@@H]3CSSC[C@H](NC(=O)[C@H](CCC(=O)O)NC(=O)[C@H](CC(N)=O)NC(=O)[C@H](CCC(=O)O)NC(=O)[C@H](CC(N)=O)NC(=O)[C@H](Cc4ccccc4)NC(=O)[C@@H]4CCCN4C(=O)[C@@H](NC(=O)CNC(=O)[C@H](Cc4ccccc4)NC(=O)CN)CSSC[C@H](NC(=O)[C@H](Cc4ccccc4)NC(=O)CNC(=O)[C@H](Cc4ccccc4)NC(=O)[C@H](CCCCN)NC(=O)[C@H](CCCNC(=N)N)NC(=O)CNC1=O)C(=O)N[C@@H](C)C(=O)NCC(=O)N1CCC[C@H]1C(=O)N[C@@H](CC(C)C)C(=O)N[C@@H](CCCNC(=N)N)C(=O)N[C@@H](C)C(=O)N[C@@H]([C@@H](C)O)C(=O)N3)C(=O)N[C@@H](Cc1c[nH]cn1)C(=O)N[C@@H](C)C(=O)N[C@@H](Cc1c[nH]cn1)C(=O)N2 [micasin] (H-GFGCPFNENECHAHCLSIGRKFGFCAGPLRATCTCGKQ-OH; disulfide 4-25, 11-33, 15-35) | 5040 ± 960 nM |  |
| CC[C@H](C)[C@@H]1NC(=O)[C@H](CO)NC(=O)[C@H](CC(C)C)NC(=O)[C@@H]2CSSC[C@@H](C(=O)NCC(=O)N[C@@H](CCCCN)C(=O)N[C@@H](CCC(N)=O)C(=O)O)NC(=O)[C@H]([C@@H](C)O)NC(=O)[C@@H]3CSSC[C@H](NC(=O)[C@H](CCC(=O)O)NC(=O)[C@H](CC(N)=O)NC(=O)[C@H](CCCNC(=N)N)NC(=O)[C@H](CC(N)=O)NC(=O)[C@H](Cc4ccccc4)NC(=O)[C@@H]4CCCN4C(=O)[C@@H](NC(=O)CNC(=O)[C@H](Cc4ccccc4)NC(=O)CN)CSSC[C@H](NC(=O)[C@H](Cc4ccccc4)NC(=O)CNC(=O)[C@H](Cc4ccccc4)NC(=O)[C@H](CCCCN)NC(=O)[C@H](CCCNC(=N)N)NC(=O)CNC1=O)C(=O)N[C@@H](C)C(=O)NCC(=O)N1CCC[C@H]1C(=O)N[C@@H](CC(C)C)C(=O)N[C@@H](CCCNC(=N)N)C(=O)N[C@@H](C)C(=O)N[C@@H]([C@@H](C)O)C(=O)N3)C(=O)N[C@@H](Cc1c[nH]cn1)C(=O)N[C@@H](C)C(=O)N[C@@H](Cc1c[nH]cn1)C(=O)N2 [rE8R] (H-GFGCPFNRNECHAHCLSIGRKFGFCAGPLRATCTCGKQ-OH; disulfide 4-25, 11-33, 15-35) |  | Kd ([1]; n = 2, read-out: KD): 1920 nM |
| recombinant micasin E8K (peptide) |  | Kd [2]: 1900 nM |

Reference: publication PMC8304516, “A Fungal Defensin Targets the SARS−CoV−2 Spike Receptor−Binding Domain” (Journal of Fungi, 2021)
